Assay results from US20230123334A1, “AMINO LIPID COMPOUND, PREPARATION METHOD THEREFOR, AND APPLICATION THEREOF” (SHENZHEN SHENXIN BIOTECHNOLOGY CO., LTD., priority 2020, published 2023).

Experiments:
[1] = tested on: HEK293 cells; assay: Preliminary screening as mRNA vectors, EGFP mRNA transfection of HEK293 cells; format: cell-based; conditions: HEK293 cells, 96-well plates, EGFP mRNA 50 ng per well; percentage of GFP fluorescent cells relative to total number of cells (Hoechst)
How it was run: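 Screening format: EGFP mRNA transfection (50 ng/well) into HEK293 in 10% FBS-supplemented DMEM. Percent green fluorescent cells, normalised to Hoechst nuclear count, gave the value; Lipofectamine2000 was the reference transfectant.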

[2] = tested on: HEK293 cells; assay: Preliminary screening as DNA vectors, GFP transfection of HEK293 cells; format: cell-based; conditions: HEK293 cells; lipid/DOPE liposome with 75 ng plasmid DNA (psin-EGFP-IRES-Puro); number of cells expressing GFP divided by total number of nuclei (Hoechst)
How it was run: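 First, amino lipid and DOPE were vortexed in sodium acetate buffer (pH 5.6) to form liposomes. Next, these were held with 75 ng EGFP plasmid at room temperature for 30 min. Finally, HEK293 cells were added, cultured at 37° C., Hoechst-stained, and GFP+/total nuclei scored by imaging.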

In the case of CCCCCCCCCCCCCCCCCCSc1nc(NCCN(C)C)nc(SCCCCCCCCCC)n1 [Compound S10S18D1], the “Absolute mRNA transfection efficiency in HEK293 cells” value (shortened to “Absolute mRNA transfection efficiency”) [1] is reported as 3.5% and the “Absolute DNA transfection efficiency in HEK293 cells” value (from here on “Absolute DNA transfection efficiency”) [2] is reported as 9.9%.

For CCCCCCCCCCCCCCCCSc1nc(NCCN2CCCCC2)nc(SCCCCCCCCCCCC)n1 [Compound S12S16D4], the “Absolute mRNA transfection efficiency” value [1] was 6.3% and the “Absolute DNA transfection efficiency” value [2] was 3.3%.

With CCCCCCCCCCCCNc1nc(NCCCCCCC)nc(NCCN2CCCCC2)n1 [Compound N7N12D4] the “Absolute mRNA transfection efficiency” value [1] was 0.6% and the “Absolute DNA transfection efficiency” value [2] was 0.0%.

CCCCCCCCCCCCN(CCCCCCCCCCCC)c1nc(NCCCCCCCCC)nc(NCCN2CCOCC2)n1 [N9^2N12D2] was tested, and the “Absolute mRNA transfection efficiency” value [1] was 1.3% and the “Absolute DNA transfection efficiency” value [2] was 0.0%.

For CCCCCCCCCCCCCCCNc1nc(NCCCCCCCCC)nc(NCCN2CCOCC2)n1 [Compound N9N15D2], the “Absolute mRNA transfection efficiency” value [1] was 0.2% and the “Absolute DNA transfection efficiency” value [2] was 0.0%.

With CCCCCCCCCCCCCCCCNc1nc(NCCCN2CCOCC2)nc(N(CCCCCCCCCCCC)CCCCCCCCCCCC)n1 [N16^2N12D8] the “Absolute mRNA transfection efficiency” value [1] was 4.3% and the “Absolute DNA transfection efficiency” value [2] was 0.4%.

CCCCCCCCCCCCCCSc1nc(NCCCN(C)C)nc(SCCCCCCCCCC)n1 [Compound S10S14D6] was tested, and the “Absolute mRNA transfection efficiency” value [1] was 48.6% and the “Absolute DNA transfection efficiency” value [2] was 26.9%.

In the case of CCCCCCCCCCCCCCCCCCSc1nc(NCCN2CCOCC2)nc(SCCCCCCCCCCC)n1 [Compound S11S18D2], the “Absolute mRNA transfection efficiency” value [1] is reported as 0.1% and the “Absolute DNA transfection efficiency” value [2] is reported as 0.2%.

With CCCCCCCCCCCCCCCCCCNc1nc(NCCCCCCCCCCC)nc(NCCCN2CCN(C)CC2)n1 [Compound N11N18D9] the “Absolute mRNA transfection efficiency” value [1] was 1.7% and the “Absolute DNA transfection efficiency” value [2] was 0.0%.

With CCCCCCCCCCCSc1nc(NCCN(C)C)nc(SCCCCCCCCCCC)n1 [Compound S11S11D1] the “Absolute mRNA transfection efficiency” value [1] was 12.9% and the “Absolute DNA transfection efficiency” value [2] was 1.3%.

CCCCCCCCCCCSc1nc(NCCN(CC)CC)nc(SCCCCCCCCCC)n1 [Compound S10S11D7] was tested, and the “Absolute mRNA transfection efficiency” value [1] was 1.8% and the “Absolute DNA transfection efficiency” value [2] was 7.3%.

With CCCCCCCCCCCCCCCCSc1nc(NCCN(CC)CC)nc(SCCCCCCCCCCCCCCC)n1 [Compound S15S16D7] the “Absolute mRNA transfection efficiency” value [1] was 0.4% and the “Absolute DNA transfection efficiency” value [2] was 0.6%.

In the case of CCCCCCCCCCCCCCCCCCNc1nc(NCCCCCC)nc(NCCN2CCOCC2)n1 [Compound N6N18D2], the “Absolute mRNA transfection efficiency” value [1] is reported as 0.9% and the “Absolute DNA transfection efficiency” value [2] is reported as 0.6%.

For CCCCCCCCCCCCCNc1nc(NCCCCCCCCC)nc(NCCN2CCCCC2)n1 [Compound N9N13D4], the “Absolute mRNA transfection efficiency” value [1] was 0.5% and the “Absolute DNA transfection efficiency” value [2] was 0.0%.

For CCCCCCCCCCCCCNc1nc(NCCCCCCCCCCCC)nc(NCCN2CCCCC2)n1 [Compound N12N13D4], the “Absolute mRNA transfection efficiency” value [1] was 0.0% and the “Absolute DNA transfection efficiency” value [2] was 0.0%.

With CCCCCCCCCCCCNc1nc(NCCCCCCCCCCC)nc(NCCCN(C)C)n1 [Compound N11N12D6] the “Absolute mRNA transfection efficiency” value [1] was 8.1% and the “Absolute DNA transfection efficiency” value [2] was 0.5%.

CCCCCCCCCCCCCCCCCCSc1nc(NCCN(C)C)nc(SCCCCCCCCCCCCCCCC)n1 [Compound S16S18D1] was tested, and the “Absolute mRNA transfection efficiency” value [1] was 2.1% and the “Absolute DNA transfection efficiency” value [2] was 1.2%.

With CCCCCCCCCCCCCCCNc1nc(NCCCCCCCCCCCC)nc(NCCN(CC)CC)n1 [Compound N12N15D7] the “Absolute mRNA transfection efficiency” value [1] was 1.4% and the “Absolute DNA transfection efficiency” value [2] was 0.8%.

For CCCCCCCCCCCCCNc1nc(NCCCCCCCC)nc(NCC2CCN(C)CC2)n1 [Compound N8N13D10], the “Absolute mRNA transfection efficiency” value [1] was 1.9% and the “Absolute DNA transfection efficiency” value [2] was 2.1%.

In the case of CCCCCCCCCCCCCNc1nc(NCCCCCC)nc(NCCN2CCCCC2)n1 [Compound N6N13D4], the “Absolute mRNA transfection efficiency” value [1] is reported as 0.6% and the “Absolute DNA transfection efficiency” value [2] is reported as 0.0%.

CCCCCCCCCCCCCCCNc1nc(NCCCCCCCCCCCCC)nc(NCCCN(C)C)n1 [Compound N13N15D6] was tested, and the “Absolute mRNA transfection efficiency” value [1] was 0.0% and the “Absolute DNA transfection efficiency” value [2] was 0.3%.

CCCCCCCCCCCCCCCCNc1nc(NCCCCCCCCC)nc(NCCN(C)C)n1 [Compound N9N16D1] was tested, and the “Absolute mRNA transfection efficiency” value [1] was 1.5% and the “Absolute DNA transfection efficiency” value [2] was 2.1%.

In the case of CCCCCCCCCCCCNc1nc(NCCCCCC)nc(NCCCN2CCOCC2)n1 [Compound N6N12D8], the “Absolute mRNA transfection efficiency” value [1] is reported as 0.1% and the “Absolute DNA transfection efficiency” value [2] is reported as 0.0%.

CCCCCCCCCCCCCCCCNc1nc(NCCCCCCC)nc(NCCN(C)C)n1 [Compound N7N16D1] was tested, and the “Absolute mRNA transfection efficiency” value [1] was 0.5% and the “Absolute DNA transfection efficiency” value [2] was 0.9%.

In the case of CCCCCCCCCCCCCCCCCCSc1nc(NCCCN(C)C)nc(SCCCCCCCCCCCCCCCC)n1 [Compound S16S18D6], the “Absolute mRNA transfection efficiency” value [1] is reported as 1.8% and the “Absolute DNA transfection efficiency” value [2] is reported as 0.2%.

With CCCCCCCCCCCCCCCSc1nc(NCCCN2CCN(C)CC2)nc(SCCCCCCCCCCCCCCC)n1 [Compound S15S15D9] the “Absolute mRNA transfection efficiency” value [1] was 0.5% and the “Absolute DNA transfection efficiency” value [2] was 0.4%.

In the case of CCCCCCCCCCCCCCCCNc1nc(NCCN(C)C)nc(N(CCCCCCCCCCCC)CCCCCCCCCCCC)n1 [N16^2N12D1], the “Absolute mRNA transfection efficiency” value [1] is reported as 3.4% and the “Absolute DNA transfection efficiency” value [2] is reported as 0.0%.

With CCCCCCCCNc1nc(NCCCCCC)nc(NCCN2CCOCC2)n1 [Compound N6N8D2] the “Absolute mRNA transfection efficiency” value [1] was 0.1% and the “Absolute DNA transfection efficiency” value [2] was 0.0%.

For CCCCCCCCCCCCCCCCCCSc1nc(NCCN2CCN(C)CC2)nc(SCCCCCCCCCC)n1 [Compound S10S18D5], the “Absolute mRNA transfection efficiency” value [1] was 3.5% and the “Absolute DNA transfection efficiency” value [2] was 3.7%.

In the case of CCCCCCCCCCCNc1nc(NCCCCCCCCCCC)nc(NCCCN2CCN(C)CC2)n1 [Compound N11N11D9], the “Absolute mRNA transfection efficiency” value [1] is reported as 0.3% and the “Absolute DNA transfection efficiency” value [2] is reported as 0.0%.

CCCCCCCCCNc1nc(NCCCCCCCCC)nc(NCCCN2CCOCC2)n1 [Compound N9N9D8] was tested, and the “Absolute mRNA transfection efficiency” value [1] was 0.6% and the “Absolute DNA transfection efficiency” value [2] was 0.0%.

CCCCCCCCCCCCNc1nc(NCCCCCCC)nc(NCCCN(C)C)n1 [Compound N7N12D6] was tested, and the “Absolute mRNA transfection efficiency” value [1] was 0.2% and the “Absolute DNA transfection efficiency” value [2] was 0.4%.

CCCCCCCCCCSc1nc(NCCN2CCCCC2)nc(SCCCCCCCCC)n1 [Compound S9S10D4] was tested, and the “Absolute mRNA transfection efficiency” value [1] was 4.1% and the “Absolute DNA transfection efficiency” value [2] was 13.3%.

For CCCCCCCCCCCCCCCNc1nc(NCCCCCCCCCCCCC)nc(NCCN2CCCCC2)n1 [Compound N13N15D4], the “Absolute mRNA transfection efficiency” value [1] was 0.0% and the “Absolute DNA transfection efficiency” value [2] was 0.0%.

CCCCCCCCCCCNc1nc(NCCCCCC)nc(NCCCN(C)C)n1 [Compound N6N11D6] was tested, and the “Absolute mRNA transfection efficiency” value [1] was 0.0% and the “Absolute DNA transfection efficiency” value [2] was 0.2%.

With CCCCCCCCNc1nc(NCCCCCCCC)nc(NCCN(CC)CC)n1 [Compound N8N8D7] the “Absolute mRNA transfection efficiency” value [1] was 0.0% and the “Absolute DNA transfection efficiency” value [2] was 0.0%.

With CCCCCCCCCCSc1nc(NCCN(C)C)nc(SCCCCCCCCCC)n1 [Compound S10S10D1] the “Absolute mRNA transfection efficiency” value [1] was 0.7% and the “Absolute DNA transfection efficiency” value [2] was 7.8%.

With CCCCCCCCCCCCN(CCCCCCCCCCCC)c1nc(NCCCCCCC)nc(NCCN2CCCCC2)n1 [N7^2N12D4] the “Absolute mRNA transfection efficiency” value [1] was 3.7% and the “Absolute DNA transfection efficiency” value [2] was 1.2%.

For CCCCCCCCCCCCCNc1nc(NCCCCCC)nc(NCCN2CCOCC2)n1 [Compound N6N13D2], the “Absolute mRNA transfection efficiency” value [1] was 0.0% and the “Absolute DNA transfection efficiency” value [2] was 0.0%.

CCCCCCCCCCCCN(CCCCCCCCCCCC)c1nc(NCCCCCCC)nc(NCCCN2CCN(C)CC2)n1 [N7^2N12D9] was tested, and the “Absolute mRNA transfection efficiency” value [1] was 5.4% and the “Absolute DNA transfection efficiency” value [2] was 1.9%.

CCCCCCCCCCCCCCCCNc1nc(NCCCCCC)nc(NCC2CCN(C)CC2)n1 [Compound N6N16D10] was tested, and the “Absolute mRNA transfection efficiency” value [1] was 0.8% and the “Absolute DNA transfection efficiency” value [2] was 0.7%.

CCCCCCCCCCCCCCCCCCSc1nc(NCCCN2CCN(C)CC2)nc(SCCCCCCCCCCCCCCCCCC)n1 [Compound S18S18D9] was tested, and the “Absolute mRNA transfection efficiency” value [1] was 0.1% and the “Absolute DNA transfection efficiency” value [2] was 0.9%.

In the case of CCCCCCCCCCCCCCCCCCSc1nc(NCCN(CC)CC)nc(SCCCCCCCCCCCCCC)n1 [Compound S14S18D7], the “Absolute mRNA transfection efficiency” value [1] is reported as 2.7% and the “Absolute DNA transfection efficiency” value [2] is reported as 0.9%.

CCCCCCCCCCCCCCCCSc1nc(NCCCN2CCOCC2)nc(SCCCCCCCC)n1 [Compound S8S16D8] was tested, and the “Absolute mRNA transfection efficiency” value [1] was 4.4% and the “Absolute DNA transfection efficiency” value [2] was 28.6%.

In the case of CCCCCCCCCCCCCCCCSc1nc(NCCN2CCN(C)CC2)nc(SCCCCCCCCCCCCCCCC)n1 [Compound S16S16D5], the “Absolute mRNA transfection efficiency” value [1] is reported as 0.7% and the “Absolute DNA transfection efficiency” value [2] is reported as 0.0%.

For CCCCCCCCCCCCCCCCCCSc1nc(NCCN2CCCC2)nc(SCCCCCCCC)n1 [Compound S8S18D3], the “Absolute mRNA transfection efficiency” value [1] was 61.5% and the “Absolute DNA transfection efficiency” value [2] was 14.3%.

CCCCCCCCCCCCCCCSc1nc(NCC2CCN(C)CC2)nc(SCCCCCCCCCC)n1 [Compound S10S15D10] was tested, and the “Absolute mRNA transfection efficiency” value [1] was 19.4% and the “Absolute DNA transfection efficiency” value [2] was 55.8%.

With CCCCCCCCCCCCCCCCNc1nc(NCCCCCCCC)nc(NCC2CCN(C)CC2)n1 [Compound N8N16D10] the “Absolute mRNA transfection efficiency” value [1] was 1.5% and the “Absolute DNA transfection efficiency” value [2] was 3.4%.
